Zone of inhibition, inhibition and MIC data for three molecules are collected here from publication PMC8232621, “Antimicrobial Activity of a Library of Thioxanthones and Their Potential as Efflux Pump Inhibitors” (Pharmaceuticals, 2021).

Bounds are passed on as bounds.

Broadly, the inhibition is the change of the read-out against control, counted positive when it falls.

One assay deals with EZF + CV026. Kind of assay: Quorum sensing inhibition assay (pigment production), parallel inoculation. Type of assay: cell-based. Particulars: disk with 8 µL of 10 mM solution, read-out: Quorum Sensing Inhibition (mm) ± SD. As for the experimental part:
(§1) Concerning the QS inhibition assay, the sensor strain Chromobacterium violaceum CV026 and the AHL producer strain Sphingomonas paucimobilis Ezf 10-17 (EZF) were inoculated as parallel lines, and the AHL producers Chromobacterium violaceum wild-type 85 (wt85) and Serratia marcescens AS-1 were inoculated as a single line. The interaction between the strains and compounds 2–18 was evaluated as the reduction of pigment production, in millimeters (mm) (Table 5) with promethazine (PMZ) as a positive control.
(§2) The QS inhibitory effect of the compounds was examined on the EZF and the sensor CV026 strains, on the wt85 strain, and on S. marcescens. The method used was the parallel inoculation method, where pair combinations of the used sensor strain CV026 and the N-acyl-homoserine lactone (AHL) producing strain EZF were inoculated directly onto the LB*-A agar surface in parallel, at an approximate distance of 5 mm from each other. S. marcescens AS-1 and wt85 were inoculated as a single line. Filter paper disks (7 mm in diameter) were placed on the center of the inoculated line(s) and impregnated with 8 µL of a solution of 10 mM of the compounds. […] The agar plates were incubated at room temperature (20 °C) for 24−48 h. The QS inhibition was accessed visually, through the inhibition of pigment production. The discolored, but intact, bacterial colonies were measured with a ruler.

The test system of assay [1] is S. aureus 272123. Kind of assay: Inhibition of biofilm formation (crystal violet). It is filed as cell-based, Staphylococcus aureus. Particulars: Staphylococcus aureus; S. aureus 272123; compounds 100 µM (compound 12 at 50 µM); 48 h; read-out: Biofilm Inhibition (%) ± SD. As for the experimental part:
Efflux mechanisms are one of the factors that can lead to biofilm-mediated resistance, along with slow growth and reduced penetration due to production of extracellular polysaccharides. […] Additionally, they can also modulate QS, through an influence in the transport of QS signal molecules. Thioxanthones 2–18 were tested for their potential for inhibiting biofilm formation by S. aureus ATCC 29213 and the multi-resistant S. aureus 272123. The biofilm inhibition, presented in percentage (%), was calculated based on the mean of absorbance units. Reserpine, which has previously been described as both an efflux pump inhibitor and an inhibitor of biofilm formation in Gram-positive bacteria was used as control in both strains.
The thioxanthone derivatives were tested for their ability to decrease the formation of biofilm. The bacterial strains used were the Gram-positive S. aureus […] and S. aureus 272123. The detection of the biofilm formation was carried out using the dye crystal violet (CV; 0.1% v/v). The initial inoculum was incubated in TSB overnight, and then diluted to an OD600 of 0.1. […] This meant that compound 12 was added at 50 µM, while the rest of the compounds were added at the concentration of 100 µM. The final volume in each well was 200 µL. Reserpine was used as a positive control, as it was the same compound used in the efflux pump inhibition assay and it has shown activity in the inhibition of biofilm formation in S. aureus strains. The plates were incubated at 30 °C for 48 h, with gentle stirring (100 rpm). After this incubation period, the TSB medium was discarded, and the plates were washed with tap water to remove unattached cells. Afterwards, 200 µL of a 0.1% v/v CV solution were added to the wells and incubated for 15 min at room temperature. Then, the CV solution was removed from the wells, and the plates were washed again with tap water, and 200 µL of a 70% ethanol solution was added to the wells. The biofilm formation was determined by measuring the OD600 using a Multiscan EX ELISA plate reader (Thermo Labsystems, Cheshire, WA, USA). The anti-biofilm effect of the compounds was expressed in the percentage (%) of decrease of biofilm formation.

For another assay, the system named is SE03. Kind of assay: Antibacterial activity, broth microdilution MIC. Type of assay: cell-based, Salmonella enterica serovar Typhimurium SL1344. Particulars: Salmonella enterica, read-out: Minimum Inhibitory Concentration (MIC). From the text:
(§3) The referred library of thioxanthones was initially tested for their antimicrobial activity against six bacterial strains: the Gram-negative Escherichia coli ATCC 25922, Pseudomonas aeruginosa ATCC 27853 and Salmonella enterica serovar Typhimurium SL1344 (SE03), with the acrA gene deleted, and the Gram-positive Staphylococcus aureus ATCC 29213, Enterococcus faecalis ATCC 29212 and the methicillin and ofloxacin-resistant clinical isolate S. aureus 272123. For the synergy assay, two clinically relevant isolates were used: the extended-spectrum β-lactamase (ESBL)-producing E. coli SA/2 [23] and the vancomycin-resistant E. faecalis (VRE) B3/101 [23]. The antibiotics used were cefotaxime (CTX) and vancomycin (VAN), respectively.
(§4) The minimum inhibitory concentration (MIC) for each compound was determined by broth microdilution method in a 96-well plate according to the Clinical and Laboratory Standard Institute (CLSI) guidelines. The medium used was MHB II. The concentrations tested ranged from 100 µM to 0.195 µM and were prepared from a stock solution of 10 mM in DMSO, for S. aureus 272123 and SE03; for the other strains, the concentrations tested ranged from 64 µg/mL to 4 µg/mL and were prepared from a stock solution of 10 mg/mL in DMSO. DMSO was used in subinhibitory concentrations (1% v/v). The MIC was determined by visual inspection.

The subject of assay [2] is S. aureus 272123. Kind of assay: Antibacterial activity, broth microdilution MIC. The conditions noted are these: Staphylococcus aureus, 272123, read-out: Minimum Inhibitory Concentration (MIC). Type of assay: cell-based.
Excerpt: as §3, §4
In general terms: Dilution methods test growth across graded concentrations, often in twofold steps.

Assay [3] deals with S. aureus ATCC 29213. Kind of assay: Antibacterial activity, broth microdilution MIC. The conditions noted are these: Staphylococcus aureus, ATCC29213; S. aureus ATCC 29213; read-out: Minimum Inhibitory Concentration (MIC). Type of assay: cell-based.
Excerpt: as §3, §4

For a further assay, the system named is E. faecalis ATCC 29212. Kind of assay: Antibacterial activity, broth microdilution MIC. Particulars: Enterococcus faecalis, ATCC29212; E. faecalis ATCC 29212; read-out: Minimum Inhibitory Concentration (MIC). Type of assay: cell-based.
Excerpt: as §3, §4

Assay [4] relates to S. aureus ATCC 29213. Kind of assay: Inhibition of biofilm formation (crystal violet). It is filed as cell-based. The conditions noted are these: Staphylococcus aureus, ATCC29213, 48 h, S. aureus ATCC 29213, compounds 100 µM (compound 12 at 50 µM), read-out: Biofilm Inhibition (%) ± SD.
Another assay concerns S. marcescens. Kind of assay: Quorum sensing inhibition assay (pigment production). Type of assay: cell-based, Serratia marcescens AS-1. The conditions noted are these: Serratia marcescens, read-out: Quorum Sensing Inhibition (mm) ± SD. The method, then:
as §1, §2

The next assay deals with wt85. The description is as above. Particulars: Chromobacterium violaceum, read-out: Quorum Sensing Inhibition (mm) ± SD. Type of assay: cell-based, Chromobacterium violaceum wild-type 85. The method, then: as §1, §2

Consider `CCCOc1ccc2nc(N)nc3c2c1Sc1ccccc1-3` [Compound 16], for which the zone of inhibition at 10000 µM turned out to be 29 ± 0.8 mm with EZF + CV026, 0 mm with S. marcescens and 0 mm with wt85. For the same molecule, the inhibition at 100 µM in the assay with S. aureus 272123 [1] was 73.6 ± 1.8%; in the assay with S. aureus ATCC 29213 [4], 0%. Besides, the MIC in the assay with SE03, with S. aureus 272123 [2], with S. aureus ATCC 29213 [3] and in the assay with E. faecalis ATCC 29212 was greater than 100 µM each time.

Consider `CCCOc1ccc2nc(NCc3ccccc3Cl)nc3c2c1Sc1ccccc1-3` [Compound 17], for which the zone of inhibition at 10000 µM is 49 ± 0.5 mm in the assay with EZF + CV026, 0 mm with S. marcescens and 0 mm with wt85. Further, the inhibition at 100 µM amounted to 6.32 ± 4.32% in the assay with S. aureus 272123 [1] and 0% in the assay with S. aureus ATCC 29213 [4]. Also, the MIC with SE03, in the assay with S. aureus 272123 [2], with S. aureus ATCC 29213 [3] and in the assay with E. faecalis ATCC 29212 was greater than 100 µM throughout.

Regarding `CCCOc1ccc2c3c(n/c(=N\c4ccccc4C)n2-c2ccccc2C)-c2ccccc2Sc13` [Compound 18], the zone of inhibition at 10000 µM in the assay with EZF + CV026, in the assay with S. marcescens and in the assay with wt85 was 0 mm throughout. Also, the inhibition at 100 µM in the assay with S. aureus 272123 [1] is 1.62 ± 2.43%; in the assay with S. aureus ATCC 29213 [4] it was 19.7 ± 7.46%. For the same molecule, the MIC in the assay on SE03, in the assay on S. aureus 272123 [2], in the assay on S. aureus ATCC 29213 [3] and in the assay on E. faecalis ATCC 29212 was greater than 100 µM each time.
